The source of these data is patent publication US20230045421A1 (priority 2018, published 2023).

In the first assay the test system is HBV rcDNA. Put plainly: HepDE19 assay with bDNA quantitation of HBV rcDNA. It is filed as cell-based, hepatitis B virus. To be noted: HepDE19 assay, inhibition of formation of rcDNA; read-out: DE-19bDNA EC50. The procedure, abridged:
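HepDE19 cells (HepG2-derived, Tet-regulated HBV replication) were deprived of tetracycline and then exposed to compounds for 7 days at 37 °C in 0.5% DMSO, 8-point titration from 25 μM. rcDNA was quantified by bDNA and EC50/EC90 came from 4-parameter fits. CC50 was measured by CellTiter-Glo ATP content on replicate plates after 4 days.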
What is called EC50 is the concentration that produces a half-maximal response. On to `CC(c1c[nH]c(=O)c2ccccc12)N(CCO)C(=O)Nc1ccc(F)c(Cl)c1` (single isomer, unassigned) [Compound 196, 3-(3-Chloro-4-fluorophenyl)-1-(2-hydroxyethyl)-1-(1-(1-oxo-1,2-dihydroisoquinolin-4-yl)ethyl)urea], for which the half-maximal effective concentration (EC50) turned out to be 20000 nM.

On to `CC(c1c[nH]c(=O)c2ccccc12)N(CCO)C(=O)Nc1ccc(F)c(Cl)c1` (single isomer, unassigned) [Compound 197, 3-(3-Chloro-4-fluorophenyl)-1-(2-hydroxyethyl)-1-(1-(1-oxo-1,2-dihydroisoquinolin-4-yl)ethyl)urea], for which the EC50 amounted to 80 nM.

With `CC(c1c[nH]c(=O)c2ccccc12)N(CCNCC(F)F)C(=O)Nc1ccc(F)c(Cl)c1` (single isomer, unassigned) [Compound 198, 3-(3-Chloro-4-fluorophenyl)-1-(2-((2,2-difluoroethyl)amino)ethyl)-1-(1-(1-oxo-1,2-dihydroisoquinolin-4-yl)ethyl)urea], the EC50 was 11900 nM.

`CC(c1c[nH]c(=O)c2ccccc12)N(CCNCC(F)F)C(=O)Nc1ccc(F)c(Cl)c1` (single isomer, unassigned) [Compound 199, 3-(3-Chloro-4-fluorophenyl)-1-(2-((2,2-difluoroethyl)amino)ethyl)-1-(1-(1-oxo-1,2-dihydroisoquinolin-4-yl)ethyl)urea]: the EC50 came to 2200 nM.

As to `CC(=O)N1CCC(CN(C(=O)Nc2ccc(F)c(Cl)c2)C(C)c2c[nH]c(=O)c3ccccc23)CC1` (single isomer, unassigned) [Compound 201, 1-((1-Acetylpiperidin-4-yl)methyl)-3-(3-chloro-4-fluorophenyl)-1-(1-(1-oxo-1,2-dihydroisoquinolin-4-yl)ethyl)urea], the EC50 came out at 220 nM. `CC(=O)N1CCC(CN(C(=O)Nc2ccc(F)c(Cl)c2)C(C)c2c[nH]c(=O)c3ccccc23)CC1` (single isomer, unassigned) [Compound 202, 1-((1-Acetylpiperidin-4-yl)methyl)-3-(3-chloro-4-fluorophenyl)-1-(1-(1-oxo-1,2-dihydroisoquinolin-4-yl)ethyl)urea]: the EC50 stood at 7300 nM. Same read-out and setting: with `CC(c1c[nH]c(=O)c2ccccc12)N(CC1CCN(S(C)(=O)=O)CC1)C(=O)Nc1ccc(F)c(Cl)c1` (single isomer, unassigned) [Compound 203, 3-(3-Chloro-4-fluorophenyl)-1-((1-(methylsulfonyl)piperidin-4-yl)methyl)-1-(1-(1-oxo-1,2-dihydroisoquinolin-4-yl)ethyl)urea] the figure was 10500 nM.

With `CC(c1c[nH]c(=O)c2ccccc12)N(CC1CCN(S(C)(=O)=O)CC1)C(=O)Nc1ccc(F)c(Cl)c1` (single isomer, unassigned) [Compound 204, 3-(3-Chloro-4-fluorophenyl)-1-((1-(methylsulfonyl)piperidin-4-yl)methyl)-1-(1-(1-oxo-1,2-dihydroisoquinolin-4-yl)ethyl)urea], the 50% effective concentration (EC50) came out at 60 nM. The same measure, in the same setting: with `CC(c1c[nH]c(=O)c2ccccc12)N(CC(C)(C)CO)C(=O)Nc1ccc(F)c(Cl)c1` (single isomer, unassigned) [Compound 209, 3-(3-Chloro-4-fluorophenyl)-1-(3-hydroxy-2,2-dimethylpropyl)-1-(1-(1-oxo-1,2-dihydroisoquinolin-4-yl)ethyl)urea] the figure was 7900 nM. For `CC(c1c[nH]c(=O)c2ccccc12)N(CC(C)(C)CO)C(=O)Nc1ccc(F)c(Cl)c1` (single isomer, unassigned) [Compound 210, 3-(3-Chloro-4-fluorophenyl)-1-(3-hydroxy-2,2-dimethylpropyl)-1-(1-(1-oxo-1,2-dihydroisoquinolin-4-yl)ethyl)urea], the EC50 worked out at 100 nM. Same read-out and setting: with `CC(c1c[nH]c(=O)c2ccccc12)N(CC[C@@H](C)O)C(=O)Nc1ccc(F)c(Cl)c1` (single isomer, unassigned) [Compound 211] the figure was 2700 nM. With `CC(c1c[nH]c(=O)c2ccccc12)N(CC[C@@H](C)O)C(=O)Nc1ccc(F)c(Cl)c1` (single isomer, unassigned) [Compound 212], the EC50 came to 20 nM. The same measure, in the same setting: with `CC(c1c[nH]c(=O)c2ccccc12)N(C[C@@H](C)O)C(=O)Nc1ccc(F)c(Cl)c1` (single isomer, unassigned) [Compound 215] the figure was 23000 nM; with `CC(c1c[nH]c(=O)c2ccccc12)N(C[C@@H](C)O)C(=O)Nc1ccc(F)c(Cl)c1` (single isomer, unassigned) [Compound 216], 90 nM; with `CC(c1c[nH]c(=O)c2ccccc12)N(C[C@H](C)O)C(=O)Nc1ccc(F)c(Cl)c1` (single isomer, unassigned) [Compound 217], 8200 nM. The same measure, in the same setting: in the case of `CC(c1c[nH]c(=O)c2ccccc12)N(C[C@H](C)O)C(=O)Nc1ccc(F)c(Cl)c1` (single isomer, unassigned) [Compound 218] it was 80 nM. The same measure, in the same setting: with `Cc1[nH]c(=O)c2ccccc2c1C(C)N(C)C(=O)Nc1ccc(F)c(Cl)c1` (single isomer, unassigned) [Compound 222, 3-(3-Chloro-4-fluorophenyl)-1-methyl-1-(1-(3-methyl-1-oxo-1,2-dihydroisoquinolin-4-yl)ethyl)urea] the figure was 620 nM; with `Cc1[nH]c(=O)c2ccccc2c1C(C)N(C)C(=O)Nc1ccc(F)c(Cl)c1` (single isomer, unassigned) [Compound 223, 3-(3-Chloro-4-fluorophenyl)-1-methyl-1-(1-(3-methyl-1-oxo-1,2-dihydroisoquinolin-4-yl)ethyl)urea], 27 nM; with `CC(c1c[nH]c(=O)c2ccccc12)N(CCCC(=O)O)C(=O)Nc1ccc(F)c(Cl)c1` (single isomer, unassigned) [Compound 227, 4-(3-(3-Chloro-4-fluorophenyl)-1-(1-(1-oxo-1,2-dihydroisoquinolin-4-yl)ethyl)ureido)butanoic acid], 4900 nM. With `CNc1ncc(C(C)N(C)C(=O)Nc2ccc(F)c(Cl)c2)c2ccccc12` (single isomer, unassigned) [Compound 231, 3-(3-Chloro-4-fluorophenyl)-1-methyl-1-(1-(1-(methylamino)isoquinolin-4-yl)ethyl)urea], the EC50 turned out to be 12000 nM. Turning to `CNc1ncc(C(C)N(C)C(=O)Nc2ccc(F)c(Cl)c2)c2ccccc12` (single isomer, unassigned) [Compound 232, 3-(3-Chloro-4-fluorophenyl)-1-methyl-1-(1-(1-(methylamino)isoquinolin-4-yl)ethyl)urea], the EC50 was found to be 120 nM.

Consider `CC(c1cnc(N(C)C)c2ccccc12)N(C)C(=O)Nc1ccc(F)c(Cl)c1` (single isomer, unassigned) [Compound 233, 3-(3-Chloro-4-fluorophenyl)-1-(1-(1-(dimethylamino)isoquinolin-4-yl)ethyl)-1-methylurea], for which the EC50 is 14000 nM.

With `CC(c1cnc(N(C)C)c2ccccc12)N(C)C(=O)Nc1ccc(F)c(Cl)c1` (single isomer, unassigned) [Compound 234, 3-(3-Chloro-4-fluorophenyl)-1-(1-(1-(dimethylamino)isoquinolin-4-yl)ethyl)-1-methylurea], the EC50 was found to be 650 nM.

The same assay, now with this note: Hepatitis B virus, HepDE19, HepDE19 assay, inhibition of formation of rcDNA; read-out: DE-19bDNA EC50.
On to `COCCCn1cc(C(C)N(C)C(=O)Nc2ccc(F)c(Cl)c2)c2ccccc2c1=O` (single isomer, unassigned) [Compound 200, 3-(3-Chloro-4-fluorophenyl)-1-(1-(2-(3-methoxypropyl)-1-oxo-1,2-dihydroisoquinolin-4-yl)ethyl)-1-methylurea], for which the EC50 came to 400 nM. The same measure, in the same setting: in the case of `CC(c1cn(CCO)c(=O)c2ccccc12)N(C)C(=O)Nc1ccc(F)c(Cl)c1` (single isomer, unassigned) [Compound 205, 3-(3-Chloro-4-fluorophenyl)-1-(1-(2-(2-hydroxyethyl)-1-oxo-1,2-dihydroisoquinolin-4-yl)ethyl)-1-methylurea] it was 160 nM. For `CC(c1cn(CCCO)c(=O)c2ccccc12)N(C)C(=O)Nc1ccc(F)c(Cl)c1` (single isomer, unassigned) [Compound 206, 3-(3-Chloro-4-fluorophenyl)-1-(1-(2-(3-hydroxypropyl)-1-oxo-1,2-dihydroisoquinolin-4-yl)ethyl)-1-methylurea], the EC50 was determined as 850 nM.

Turning to `CC(c1c[nH]c(=O)c2ccccc12)N(CC1CCN(C)CC1)C(=O)Nc1ccc(F)c(Cl)c1` (single isomer, unassigned) [Compound 207, 3-(3-Chloro-4-fluorophenyl)-1-((1-methylpiperidin-4-yl)methyl)-1-(1-(1-oxo-1,2-dihydroisoquinolin-4-yl)ethyl)urea], the EC50 is 9000 nM.

As to `CC(c1c[nH]c(=O)c2ccccc12)N(CCC(=O)O)C(=O)Nc1ccc(F)c(Cl)c1` (single isomer, unassigned) [Compound 208, 3-(3-(3-Chloro-4-fluorophenyl)-1-(1-(1-oxo-1,2-dihydroisoquinolin-4-yl)ethyl)ureido)propanoic acid], the EC50 worked out at 3300 nM. Consider `CNS(=O)(=O)CCCN(C(=O)Nc1ccc(F)c(Cl)c1)C(C)c1c[nH]c(=O)c2ccccc12` (single isomer, unassigned) [Compound 220, 3-(3-(3-Chloro-4-fluorophenyl)-1-(1-(1-oxo-1,2-dihydroisoquinolin-4-yl)ethyl)ureido)-N-methylpropane-1-sulfonamide], for which the EC50 was 140 nM.

The assay is the same for the next values; noted with them: read-out: DE-19bDNA EC50; HepDE19 assay, inhibition of formation of rcDNA.
Take `CC(c1c[nH]c(=O)c2ccccc12)N(CC[C@H](C)O)C(=O)Nc1ccc(F)c(Cl)c1` (single isomer, unassigned) [Compound 213]: the EC50 was 3600 nM. Still for that read-out and setting: in the case of `CC(c1c[nH]c(=O)c2ccccc12)N(CC[C@H](C)O)C(=O)Nc1ccc(F)c(Cl)c1` (single isomer, unassigned) [Compound 214] it was 47 nM.
